According to patent US20230330254A1 (Regeneron Pharmaceuticals, Inc., priority 2022, published 2023):
Read-outs that look alike come from different tables or passages of the source. Where a SMILES comes first, the peptide text is derived from it. [ ]: non-standard residue; d: D form. The star is where a group is joined. Bip(2'-Et,4'-O(CH2)4NH2) = CCc1cc(OCCCCN)ccc1-c1ccc(C[C@H](N)C(=O)O)cc1; Malonyl(2,2-Me2,histaminyl) = CC(C)(C(=O)NCCc1cnc[nH]1)C(=O)*; Nva(5-(3,5-Me2Ph)) = Cc1cc(C)cc(CCC[C@H](N)C(=O)O)c1; Ala(1H-tetrazol-5-yl) = N[C@@H](Cc1nnn[nH]1)C(=O)O; αMePhe(2-F) = C[C@](N)(Cc1ccccc1F)C(=O)O

What was measured:
human GLP1R [1] = molecular target: T1, human GLP1R (Homo sapiens, UniProt P43220); experiment: CRE-luciferase reporter assay, HEK293/Myc-hGLP1R/Cre-Luc (Example 9); assay type: cell-based; set-up: engineered to express full-length human GLP1R, cynomolgus GLP1R; expressed in transfected cells; host or cells: HEK293/CRE-Luc
Method: To test the activity of GLP1R agonist payloads and GLP1R agonist linker-payloads (LPs) in vitro, a cell-based cAMP responsive luciferase reporter assay was developed.
Cells were incubated overnight at 37° C. in 5% CO2. […] Plates were incubated for 5.5 h at 37° C. in 5% CO2. For end-point measurement, 100 μL/well of One-Glo reagent (Promega, #E6051) was added and plates were kept at room temperature for 5-10 minutes. Luciferase activity was measured on Envision Multilabel Plate Reader (Perkin Elmer) in Luminescent mode. The relative light units (RLU) values were obtained and the results were analyzed using nonlinear regression with GraphPad Prism software (GraphPad).

human GLP1R [2] = molecular target: T1, human GLP1R; experiment: Human GLP1R cAMP accumulation assay; assay type: cell-based; set-up: HEK293 cells over-expressing full length human GLP-1R were utilized; expressed in transfected cells; host or cells: HEK293 (HEK293/hGLP1R)
Summary of the method: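 cAMP accumulation measured after 30 min at 23° C, with 500 μM IBMX in HEPES-buffered HBSS plus 0.1% BSA, in HEK293 cells expressing full-length hGLP-1R. Levels read by D2-cAMP/antibody immunoassay via standard curve, scaled between low and high controls. EC50 fitted four-parameter over a 10-point curve.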

[3] = Plasma stability of payloads and linker-payloads, human plasma; assay type: in vitro ADME
Summary of the method: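 Pooled plasma, pH adjusted to 7.4±0.1 where needed, spiked to 2 μM compound (duplicate) and incubated at 37 °C. At each time point, protein was precipitated with ACN/MeOH stop solution containing internal standards; remaining compound quantified in supernatant by LC-MS/MS.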

human GLP1R [4] = molecular target: T1, human GLP1R; experiment: Luciferase reporter assay, HEK293/CRE-Luc/hGLP1R (Example 17); assay type: cell-based; set-up: engineered to express full-length human GLP1R, cynomolgus GLP1R; expressed in transfected cells; host or cells: HEK293/CRE-Luc; details: HEK293/CRE-Luc/hGLP1R; for EC50: payloads and linker-payloads, experiments A-E, M2361 repeated in each, read-out: EC50
Summary of the method: (§1)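 HEK293 cells carrying a CRE-driven firefly luciferase reporter were exposed to 3-fold serial dilutions of payloads or linker-payloads (12 points, 0.2% DMSO final) for 4–6 h, then luminescence was read. EC50 came from a four-parameter logistic fit; S/N is top RLU over untreated wells, and relative potency and S/N are referenced to M2361.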

HEK293/CRE-Luc cells = experiment: Luciferase reporter assay, HEK293/CRE-Luc cells without GLP1R (Example 17); assay type: cell-based, human
Summary of the method: as §1

[5] = HEK293/hGLP1R cells, Table 4, read-out: cAMP EC50
[6] = ATDCs and references (Table 27)
[7] = highest RLU / RLU of untreated wells
[8] = relative to M2361 of the same experiment
[9] = HEK293/CRE-Luc cells without hGLP1R, payloads and linker-payloads
[10] = HEK293/CRE-Luc cells without hGLP1R, payloads and linker-payloads, read-out: EC50

T1 sequence (P43220 24-463): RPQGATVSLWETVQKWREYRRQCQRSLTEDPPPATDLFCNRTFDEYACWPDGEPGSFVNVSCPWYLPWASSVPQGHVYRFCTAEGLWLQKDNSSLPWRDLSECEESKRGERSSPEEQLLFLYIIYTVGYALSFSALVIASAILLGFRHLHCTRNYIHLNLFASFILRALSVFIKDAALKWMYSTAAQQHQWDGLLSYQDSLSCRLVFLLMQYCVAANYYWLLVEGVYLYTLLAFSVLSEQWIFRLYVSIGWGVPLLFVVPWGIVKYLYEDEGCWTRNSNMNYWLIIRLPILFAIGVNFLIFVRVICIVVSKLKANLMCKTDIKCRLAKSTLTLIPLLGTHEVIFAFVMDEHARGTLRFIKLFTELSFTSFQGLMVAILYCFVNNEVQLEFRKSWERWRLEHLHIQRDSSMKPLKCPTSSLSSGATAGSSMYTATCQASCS

Row | Structure (SMILES) | EC50 (human GLP1R [2]; [5]) | S/N (human GLP1R [4]; [7]) | EC50 (human GLP1R [4]) | Relative Potency (% M2361 EC50) (human GLP1R [4]; [8]) | Relative Signal:Noise (% M2361) (human GLP1R [4]; [8]) | S/N (HEK293/CRE-Luc cells; [9]) | EC50 (HEK293/CRE-Luc cells; [10]) | other results
1 | CCc1cc(OCCCCn2cc(COCCOCCOCCOCCOCCOCCOCCOCCN)nn2)ccc1-c1ccc(C[C@H](NC(=O)[C@H](CC(=O)O)NC(=O)[C@H](CO)NC(=O)[C@@H](NC(=O)C(C)(Cc2ccccc2F)NC(=O)[C@@H](NC(=O)CNC(=O)[C@H](Cc2nn[nH]n2)NC(=O)C(C)(C)C(=O)NCCc2cnc[nH]2)[C@@H](C)O)[C@@H](C)O)C(=O)N[C@@H](CCCc2cc(C)cc(C)c2)C(N)=O)cc1 (stereo partly shown) [LP11, NH2-PEG8-triazole-P8] | 0.318 nM |  |  |  |  |  |  | EC50 (human GLP1R [1]; Table 5C, read-out: GLP1R LUC EC50): 0.016 nM; EC50 (human GLP1R [1]; Table 9, […], read-out: HEK293/Myc-hGLP1R/Cre-Luc EC50): 0.016 nM; EC50 (human GLP1R [2]; Table 5C, read-out: c-AMP EC50): 0.318 nM; half-life at 2 µM ([3]; pooled plasma, pH 7.4, Table 5C, read-out: Plasma Stability Human T½): > 168 h; half-life at 2 µM ([3]; pooled plasma, pH 7.4, tested time C (3 days), 2 μM, 37° C., read-out: Human plasma stability assay T½ (converted)): > 173 h
2 | CCc1cc(OCCCCn2cc(COCCOCCOCCOCCOCCOCCOCCOCCN)nn2)ccc1-c1ccc(C[C@H](NC(=O)[C@H](CC(=O)O)NC(=O)[C@H](CO)NC(=O)[C@@H](NC(=O)[C@](C)(Cc2ccccc2F)NC(=O)[C@@H](NC(=O)CNC(=O)[C@H](Cc2nn[nH]n2)NC(=O)C(C)(C)C(=O)NCCc2cnc[nH]2)[C@@H](C)O)[C@@H](C)O)C(=O)N[C@@H](CCCc2cc(C)cc(C)c2)C(N)=O)cc1 [M3190] |  | 74.5 | 0.0161 nM | 33.1% | 113.3% | 1.3 | > 200 nM | Relative Potency (% M2361 EC50) (human GLP1R [4]; [6]): 44.0%; Relative Signal:Noise (% M2361) (human GLP1R [4]; [6]): 96.4%; S/N (human GLP1R [4]; [6]): 62.0; S/N (HEK293/CRE-Luc cells; HEK293/CRE-Luc cells without hGLP1R, ATDCs and references (Table 27)): 1.3; EC50 (HEK293/CRE-Luc cells; HEK293/CRE-Luc cells without hGLP1R, ATDCs and references (Table 27), read-out: EC50): > 20 nM; EC50 (HEK293/CRE-Luc cells; Table 28, reporter cells without GLP1R, read-out: HEK293/CRE-Luc EC50): > 200 nM; EC50 (HEK293/CRE-Luc cells; Table 29, reporter cells without GLP1R, read-out: HEK293/CRE-Luc EC50): > 30 nM
3 | CCc1cc(OCCCCN)ccc1-c1ccc(C[C@H](NC(=O)[C@H](CC(=O)O)NC(=O)[C@H](CO)NC(=O)[C@@H](NC(=O)[C@](C)(Cc2ccccc2F)NC(=O)[C@@H](NC(=O)CNC(=O)[C@H](Cc2nn[nH]n2)NC(=O)C(C)(C)C(=O)NCCc2cnc[nH]2)[C@@H](C)O)[C@@H](C)O)C(=O)N[C@@H](CCCc2cc(C)cc(C)c2)C(N)=O)cc1 [P9, (8S,14S,17S,20S,23S,26S)-8-((2H-tetrazol-5-yl)methyl)-26-(((S)-1-(((S)-1-amino-5-(3,5-dimethylphenyl)-1-oxopentan-2-yl)amino)-3-(4′-(4-aminobutoxy)-2′-ethyl-[1,1′-biphenyl]-4-yl)-1-oxopropan-2-yl)carbamoyl)-17-(2-fluorobenzyl)-14,20-bis((R)-1-hydroxyethyl)-23-(hydroxymethyl)-1-(1H-imidazol-5-yl)-5,5,17-trimethyl-4,6,9,12,15,18,21,24-octaoxo-3,7,10,13,16,19,22,25-octaazaoctacosan-28-oic acid] ({Malonyl(2,2-Me2,histaminyl)}-[Ala(1H-tetrazol-5-yl)]GT[αMePhe(2-F)]TSD[Bip(2'-Et,4'-O(CH2)4NH2)][Nva(5-(3,5-Me2Ph))]-NH2) | 0.05 nM | 75.2 | 0.00397 nM | 133.8% | 114.3% | 1.3 | > 200 nM | EC50 (human GLP1R [1]; Table 9, 5.5 h, read-out: HEK293/Myc-hGLP1R/Cre-Luc EC50): 0.00332 nM; half-life at 2 µM ([3]; plasma, pH 7.4, tested time A (1 day per footnote), 2 μM, 37° C., read-out: Human plasma stability assay T½ (converted)): > 57.8 h
